Reference: PubChem BioAssay AID2060505 (Molecular Pharmacology Branch, DTP, NCI, 2025)

Tested on: 633275-114-R-J1-PDC complex spheroids, viability
Assay: Anticancer human tumor 633275-114-R-J1-PDC patient-derived endometrial adenocarcinoma cell line growth inhibition [GQUAD]
Details: for IC50: curve of first compound; for viability, T/C: stronger effect = lower value
Text: DNA G-quadruplex Stabilizer Agents in Combinations in Complex Spheroids
A high-throughput screen of multi-cell type tumor spheroids was designed to identify active combinations of DNA G-quadruplex stabilizer agents and targeted small molecules. Complex spheroids include a stromal component modeled by human endothelial cells (HUVEC) and fibroblasts modeled by human mesenchymal stem cells (MSCs). The concentration ranges selected for each drug and investigational agent were based upon clinically achievable concentrations if the clinical Cmax of the agent was known.
Compounds. The drugs and investigational agents: pidnarulex (CX-5461; NSC782164), APTO-253 (NSC789042), BRACO-19 (NSC847499), peposertib (NSC802822), ceralasertib (NSC780249), elimusertib (NSC800525), camonsertib (NSC841442), AZD-1390 (NSC803789), olaparib (NSC753686), talazoparib (NSC767125), ART-558 (NSC835418), sotorasib (NSC818433), MRTX-1133 (NSC836407), SN-38 (NSC673596), topotecan (NSC609699), etoposide (NSC141540), doxorubicin (NSC123127), gemcitabine (NSC613327), 5-fluorouracil (NSC19893), paclitaxel (NSC125973), vemurafenib (NSC761431), panobinostat (NSC761190), R-306465 (JNJ-16241199; NSC773264), adavosertib (NSC754352), TP-3654 (NSC805149), carboplatin (NSC241240), KSQ-4279 (NSC840948), and staurosporine (NSC755774) were obtained from the National Cancer Institute (NCI) Developmental Therapeutics Program Chemical Repository (34). The FDA-approved anticancer drug set is available from the NCI Developmental Therapeutics Program. […] The stock solutions were prepared in dimethyl sulfoxide (DMSO, Sigma-Aldrich, St. Louis, MO, cat. D2650) at 800-fold the tested concentration and stored at -70 degrees C prior to their use. All drugs and investigational agents were tested over a range starting from a high concentration at or near the clinical Cmax and decreasing in half-log increments. If the clinical Cmax for an agent had not been determined, the highest concentration tested was 10 microM.
2.3 Cell Culture. All cells were maintained in an incubator at 37 degrees C and 5% CO2 with 95% humidity. The PDC lines were cultured according to standard operating procedures established by the NCI PDMR. All PDCs were thawed and cultured in Matrigel-coated flasks prepared with a working solution of 1X Ham's F-12 nutrient mix, without supplementation (Invitrogen, cat. 11765054), 100 U/mL penicillin-streptomycin (Invitrogen, cat. 15140122), and 2.5% Matrigel (Corning Inc., cat. 354248) for the first three passages. The 857933-349-R-J2-PDC line was cultured in 6C/Colon 1B media, which includes advanced DMEM/F-12 (Thermo Fisher Scientific, cat. 12634028), 10 mM HEPES (Thermo Fisher Scientific, cat. 15630080), 1X GlutaMAX supplement (Thermo Fisher Scientific, cat. 35050061), 0.1 mg/mL primocin (InvivoGen, cat. ant-pm-2), 10% defined fetal bovine serum, heat inactivated (HyClone Laboratories Inc., cat. SH30070.03HI), 50% L-WRN conditioned media (ATCC, cat. CRL-3276), 1.25 mM N-Acetyl-L-cysteine (Sigma-Aldrich, cat. A9165), 10 mM nicotinamide (Sigma-Aldrich, cat. N0636), 1X B-27 supplement (Thermo Fisher Scientific, cat. 17504044), 1X N-2 supplement (Thermo Fisher Scientific, cat. 17502048), 10 microM Y-27632 dihydrochloride (Tocris Bioscience, cat. 1254), and 50 ng/mL human EGF recombinant protein (Thermo Fisher Scientific, cat. PHG0311). The 485176-168-R4-J1-PDC line was cultured in Panc media, which includes all 6C/Colon 1B media components plus 100 ng/mL human FGF-10 (Thermo Fisher Scientific, cat. 100-26), 500 nM SB-431542 (Selleckchem, cat. S1067), and gastrin (Tocris, cat. 3006).
[…]
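Also: spheroids exposed to the agents for seven days.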
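For viability, T/C in this document: percent of DMSO vehicle control viability which is 100%.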

COc1ncnc(C2CC2)c1-c1ncc2cnn(Cc3ccc(-c4nc(C(F)(F)F)cn4C(C)C)cc3)c2n1 + Cc1[nH]c2ccc(F)cc2c1-c1nc2c3cccnc3c3ncccc3c2[nH]1
IC50 (second compound 0.0316 µM): > 10 µM | IC50 (second compound 0.1 µM): > 10 µM | IC50 (second compound 0.316 µM): > 10 µM | IC50 (second compound 1 µM): > 10 µM | IC50 (second compound 3.16 µM): > 10 µM | IC50 (second compound 10 µM): > 10 µM | viability, T/C (second compound 0.0316 µM, first compound 0.0316 µM): 95.6% | viability, T/C (second compound 0.0316 µM, first compound 0.1 µM): 91.5% | viability, T/C (second compound 0.0316 µM, first compound 0.316 µM): 100% | viability, T/C (second compound 0.0316 µM, first compound 1 µM): 93.2% | viability, T/C (second compound 0.0316 µM, first compound 3.16 µM): 91.4% | viability, T/C (second compound 0.0316 µM, first compound 10 µM): 89.8% | viability, T/C (second compound 0.1 µM, first compound 0.0316 µM): 98.2% | viability, T/C (second compound 0.1 µM, first compound 0.1 µM): 102% | viability, T/C (second compound 0.1 µM, first compound 0.316 µM): 89.5% | viability, T/C (second compound 0.1 µM, first compound 1 µM): 96.7% | viability, T/C (second compound 0.1 µM, first compound 3.16 µM): 92.1% | viability, T/C (second compound 0.1 µM, first compound 10 µM): 87.7% | viability, T/C (second compound 0.316 µM, first compound 0.0316 µM): 93.4% | viability, T/C (second compound 0.316 µM, first compound 0.1 µM): 87.9% | viability, T/C (second compound 0.316 µM, first compound 0.316 µM): 87.3% | viability, T/C (second compound 0.316 µM, first compound 1 µM): 82.3% | viability, T/C (second compound 0.316 µM, first compound 3.16 µM): 99.7% | viability, T/C (second compound 0.316 µM, first compound 10 µM): 91.8% | viability, T/C (second compound 1 µM, first compound 0.0316 µM): 86.7% | viability, T/C (second compound 1 µM, first compound 0.1 µM): 90% | viability, T/C (second compound 1 µM, first compound 0.316 µM): 93.2% | viability, T/C (second compound 1 µM, first compound 1 µM): 81.3% | viability, T/C (second compound 1 µM, first compound 3.16 µM): 93.5% | viability, T/C (second compound 1 µM, first compound 10 µM): 87.1% | viability, T/C (second compound 3.16 µM, first compound 0.0316 µM): 70% | viability, T/C (second compound 3.16 µM, first compound 0.1 µM): 78.4% | viability, T/C (second compound 3.16 µM, first compound 0.316 µM): 64.1% | viability, T/C (second compound 3.16 µM, first compound 1 µM): 62.7% | viability, T/C (second compound 3.16 µM, first compound 3.16 µM): 73.2% | viability, T/C (second compound 3.16 µM, first compound 10 µM): 67% | viability, T/C (second compound 10 µM, first compound 0.0316 µM): 59.8% | viability, T/C (second compound 10 µM, first compound 0.1 µM): 63.1% | viability, T/C (second compound 10 µM, first compound 0.316 µM): 56% | viability, T/C (second compound 10 µM, first compound 1 µM): 60.5% | viability, T/C (second compound 10 µM, first compound 3.16 µM): 62.3% | viability, T/C (second compound 10 µM, first compound 10 µM): 60.3%
